Laboratory results published in the NIST ThermoML archive (doi:10.1016/j.jct.2016.10.023).

Assay: xn = mol fraction of the nth substance listed
Settings: Constant-volume piezometry

CCCCC [pentane] + CCCO
mass density [kg/m3]
Settings | Fluid (supercritical or subcritical phases) | Gas
518.15 K, 4877 kPa, x1 = 0.2 | 220.15 | –
518.15 K, 4965 kPa, x1 = 0.2 | 259.26 | –
518.15 K, 4994 kPa, x1 = 0.2 | 272.43 | –
518.15 K, 5010 kPa, x1 = 0.2 | 290.61 | –
523.15 K, 954 kPa, x1 = 0.5 | – | 15.52
523.15 K, 1314 kPa, x1 = 0.8 | – | 22.52
523.15 K, 1549 kPa, x1 = 0.2 | – | 24.93
523.15 K, 1732 kPa, x1 = 0.5 | – | 29.98
523.15 K, 1978 kPa, x1 = 0.8 | – | 36.69
523.15 K, 2284 kPa, x1 = 0.5 | – | 40.49
523.15 K, 2704 kPa, x1 = 0.5 | – | 51.09
523.15 K, 2890 kPa, x1 = 0.8 | – | 58.41
523.15 K, 3111 kPa, x1 = 0.2 | – | 53.01
523.15 K, 3416 kPa, x1 = 0.5 | – | 67.52
523.15 K, 3421 kPa, x1 = 0.8 | – | 73.79
523.15 K, 3614 kPa, x1 = 0.5 | – | 72.6
523.15 K, 3631 kPa, x1 = 0.9 | 83.38 | –
523.15 K, 4037 kPa, x1 = 0.2 | – | 91.41
523.15 K, 4041 kPa, x1 = 0.5 | – | 88.91
523.15 K, 4261 kPa, x1 = 0.5 | – | 95.85
523.15 K, 4356 kPa, x1 = 0.8 | 106.4 | –
523.15 K, 4459 kPa, x1 = 0.2 | 114.35 | 114.35
523.15 K, 4600 kPa, x1 = 0.9 | 123.35 | –
523.15 K, 4817 kPa, x1 = 0.9 | 134.12 | –
523.15 K, 4864 kPa, x1 = 0.2 | 150.34 | –
523.15 K, 4871 kPa, x1 = 0.5 | 121.89 | –
523.15 K, 5043 kPa, x1 = 0.2 | 175.61 | –
523.15 K, 5108 kPa, x1 = 0.2 | 189.64 | –
523.15 K, 5158 kPa, x1 = 0.8 | 140.3 | –
523.15 K, 5206 kPa, x1 = 0.5 | 144.11 | –
523.15 K, 5208 kPa, x1 = 0.2 | 220.1 | –
523.15 K, 5292 kPa, x1 = 0.2 | 245.47 | –
523.15 K, 5316 kPa, x1 = 0.9 | 163.95 | –
523.15 K, 5328 kPa, x1 = 0.2 | 259.2 | –
523.15 K, 5343 kPa, x1 = 0.2 | 262.9 | –
523.15 K, 5359 kPa, x1 = 0.5 | 154.49 | –
523.15 K, 5364 kPa, x1 = 0.2 | 272.36 | –
523.15 K, 5370 kPa, x1 = 0.8 | 156.04 | –
523.15 K, 5423 kPa, x1 = 0.2 | 290.54 | –
523.15 K, 5483 kPa, x1 = 0.2 | 306.83 | –
523.15 K, 5508 kPa, x1 = 0.2 | 311.06 | –
523.15 K, 5518 kPa, x1 = 0.5 | 165.14 | –
523.15 K, 5551 kPa, x1 = 0.2 | 318.77 | –
523.15 K, 5586 kPa, x1 = 0.8 | 169.78 | –
523.15 K, 5668 kPa, x1 = 0.8 | 176.03 | –
523.15 K, 5707 kPa, x1 = 0.2 | 341.26 | –
523.15 K, 5707 kPa, x1 = 0.5 | 182.85 | –
523.15 K, 5717 kPa, x1 = 0.9 | 189.45 | –
523.15 K, 5731 kPa, x1 = 0.2 | 344.05 | –
523.15 K, 5763 kPa, x1 = 0.8 | 180.83 | –
523.15 K, 5911 kPa, x1 = 0.9 | 202.38 | –
523.15 K, 5913 kPa, x1 = 0.5 | 200.39 | –
523.15 K, 5925 kPa, x1 = 0.8 | 193.16 | –
523.15 K, 6011 kPa, x1 = 0.5 | 210.22 | –
523.15 K, 6117 kPa, x1 = 0.5 | 224.05 | –
523.15 K, 6195 kPa, x1 = 0.9 | 220.68 | –
523.15 K, 6235 kPa, x1 = 0.5 | 241.5 | –
523.15 K, 6236 kPa, x1 = 0.8 | 213.85 | –
523.15 K, 6242 kPa, x1 = 0.2 | 378.64 | –
523.15 K, 6294 kPa, x1 = 0.5 | 250.69 | –
523.15 K, 6320 kPa, x1 = 0.8 | 219.62 | –
523.15 K, 6339 kPa, x1 = 0.2 | 383.45 | –
523.15 K, 6353 kPa, x1 = 0.5 | 259.74 | –
523.15 K, 6399 kPa, x1 = 0.9 | 233.06 | –
523.15 K, 6454 kPa, x1 = 0.9 | 236.53 | –
523.15 K, 6480 kPa, x1 = 0.5 | 270.56 | –
523.15 K, 6513 kPa, x1 = 0.9 | 240.93 | –
523.15 K, 6560 kPa, x1 = 0.2 | 391.28 | –
523.15 K, 6567 kPa, x1 = 0.9 | 244.24 | –
523.15 K, 6580 kPa, x1 = 0.8 | 234.7 | –
523.15 K, 6628 kPa, x1 = 0.5 | 282.38 | –
523.15 K, 6748 kPa, x1 = 0.8 | 245.34 | –
523.15 K, 6923 kPa, x1 = 0.5 | 298.67 | –
523.15 K, 6963 kPa, x1 = 0.8 | 258.57 | –
523.15 K, 7242 kPa, x1 = 0.8 | 272.53 | –
523.15 K, 7295 kPa, x1 = 0.9 | 282.01 | –
523.15 K, 7431 kPa, x1 = 0.5 | 320 | –
523.15 K, 7549 kPa, x1 = 0.5 | 325.27 | –
523.15 K, 7577 kPa, x1 = 0.2 | 418.71 | –
523.15 K, 7600 kPa, x1 = 0.8 | 288.38 | –
523.15 K, 7736 kPa, x1 = 0.9 | 301.69 | –
523.15 K, 7896 kPa, x1 = 0.8 | 299.2 | –
523.15 K, 8097 kPa, x1 = 0.5 | 344.56 | –
523.15 K, 8118 kPa, x1 = 0.9 | 312.33 | –
523.15 K, 8453 kPa, x1 = 0.8 | 315.37 | –
523.15 K, 8992 kPa, x1 = 0.9 | 334.04 | –
523.15 K, 9070 kPa, x1 = 0.5 | 372.89 | –
523.15 K, 9148 kPa, x1 = 0.8 | 333.86 | –
523.15 K, 9669 kPa, x1 = 0.8 | 345.38 | –
523.15 K, 10260 kPa, x1 = 0.9 | 354.13 | –
523.15 K, 10494 kPa, x1 = 0.5 | 398.14 | –
523.15 K, 10826 kPa, x1 = 0.8 | 361.95 | –
523.15 K, 11137 kPa, x1 = 0.2 | 470.39 | –
523.15 K, 12130 kPa, x1 = 0.5 | 417.24 | –
523.15 K, 14557 kPa, x1 = 0.5 | 440.97 | –
523.15 K, 15550 kPa, x1 = 0.9 | 407.31 | –
523.15 K, 15764 kPa, x1 = 0.5 | 451.29 | –
523.15 K, 16344 kPa, x1 = 0.8 | 418.23 | –
523.15 K, 16569 kPa, x1 = 0.2 | 509.61 | –
523.15 K, 19192 kPa, x1 = 0.5 | 468.18 | –
523.15 K, 25897 kPa, x1 = 0.2 | 547.05 | –
523.15 K, 26649 kPa, x1 = 0.8 | 466.73 | –
523.15 K, 33702 kPa, x1 = 0.5 | 519.37 | –
523.15 K, 36508 kPa, x1 = 0.8 | 496.15 | –
523.15 K, 39812 kPa, x1 = 0.2 | 581.35 | –
533.15 K, 1342 kPa, x1 = 0.8 | – | 22.51
533.15 K, 1590 kPa, x1 = 0.2 | – | 24.92
533.15 K, 2034 kPa, x1 = 0.8 | – | 36.67
533.15 K, 2979 kPa, x1 = 0.8 | – | 58.39
533.15 K, 3245 kPa, x1 = 0.2 | – | 52.98
533.15 K, 3545 kPa, x1 = 0.8 | – | 73.76
533.15 K, 3768 kPa, x1 = 0.9 | 83.34 | –
533.15 K, 4255 kPa, x1 = 0.2 | – | 91.37
533.15 K, 4552 kPa, x1 = 0.8 | 106.35 | –
533.15 K, 4745 kPa, x1 = 0.2 | – | 114.3
533.15 K, 4839 kPa, x1 = 0.9 | 123.29 | –
533.15 K, 5078 kPa, x1 = 0.9 | 134.05 | –
533.15 K, 5281 kPa, x1 = 0.2 | 150.27 | –
533.15 K, 5454 kPa, x1 = 0.8 | 140.24 | –
533.15 K, 5541 kPa, x1 = 0.2 | 175.53 | –
533.15 K, 5638 kPa, x1 = 0.2 | 189.54 | –
533.15 K, 5660 kPa, x1 = 0.9 | 163.88 | –
533.15 K, 5720 kPa, x1 = 0.8 | 155.97 | –
533.15 K, 5833 kPa, x1 = 0.2 | 219.99 | –
533.15 K, 5973 kPa, x1 = 0.8 | 169.7 | –
533.15 K, 5993 kPa, x1 = 0.2 | 245.35 | –
533.15 K, 6071 kPa, x1 = 0.8 | 175.94 | –
533.15 K, 6078 kPa, x1 = 0.2 | 259.07 | –
533.15 K, 6109 kPa, x1 = 0.2 | 262.77 | –
533.15 K, 6137 kPa, x1 = 0.9 | 189.36 | –
533.15 K, 6162 kPa, x1 = 0.2 | 272.22 | –
533.15 K, 6177 kPa, x1 = 0.8 | 180.74 | –
533.15 K, 6285 kPa, x1 = 0.2 | 290.39 | –
533.15 K, 6384 kPa, x1 = 0.8 | 193.07 | –
533.15 K, 6395 kPa, x1 = 0.9 | 202.28 | –
533.15 K, 6426 kPa, x1 = 0.2 | 306.67 | –
533.15 K, 6463 kPa, x1 = 0.2 | 310.9 | –
533.15 K, 6550 kPa, x1 = 0.2 | 318.61 | –
533.15 K, 6727 kPa, x1 = 0.9 | 220.58 | –
533.15 K, 6761 kPa, x1 = 0.8 | 213.75 | –
533.15 K, 6844 kPa, x1 = 0.2 | 341.09 | –
533.15 K, 6859 kPa, x1 = 0.8 | 219.51 | –
533.15 K, 6879 kPa, x1 = 0.2 | 343.88 | –
533.15 K, 6955 kPa, x1 = 0.9 | 232.95 | –
533.15 K, 7014 kPa, x1 = 0.9 | 236.41 | –
533.15 K, 7092 kPa, x1 = 0.9 | 240.81 | –
533.15 K, 7159 kPa, x1 = 0.9 | 244.12 | –
